In patent US20040266723A1, “Antiviral agents for treatment of Flaviviridae infections” (priority 2000, published 2004):
pIC50, pKi: −log10 of the molar value. Like-named read-outs stand apart in the source and are kept apart here.

Columns and labels:
[1] = Cytotoxicity in HepG2 cells; assay type: cell-based; settings: human
Method: Cytotoxicity testing can be carried out according to standard methods. MDBK, PBM, HepG2, Huh7 and Vero cells were used. […]. After a three day-incubation, cell viability and mitochondrial activity are measured by adding the MTS-dye (Promega), followed by a 3 hours incubation. Afterwards the plates containing the dye are read at 490 nm. Each assay was done in triplicate. Such methodologies are well described and available from the manufacturer (Promega).

BVDV = BVDV real time RT-PCR antiviral assay in MDBK cells; assay type: cell-based, Bovine viral diarrhea virus (BVDV), strain NADL; settings: for max log reduction Viral Load / virus production / viral RNA versus negative control: MDBK cells; for Selectivity Index (24 hrs/24 hrs) CC50/EC90: MDBK CC50 24 hrs / antiviral EC90 24 hrs; for virus production / viral RNA versus negative control: MOI 0.02, 22 hours, real time RT-PCR
Method: As one illustration of this method, in the case of BVDV in MDBK cells, in a first step, viral RNA is isolated from 140 μL of the cell culture supernatant by means of a commercially available column (Viral RNA extraction kit, QiaGen, CA). The viral RNA is then eluted from the column to yield a total volume of 60 μL, and subsequently amplified with a quantitative RT-PCR protocol using a suitable primer for the BVDV NADL strain. A quenched fluorescent probe molecule is hybridized to the BVDV DNA, which then undergoes exonucleolytic degradation resulting in a detectable fluorescent signal. Therefore, the RT-PCR amplified DNA was detected in real time by monitoring the presence of fluorescence signals. The TaqMan probe molecule (5′ 6-fam-[…]-tamara 3′ [Sequence ID No. 7] and primers (sense: 5′-[…]-3′ [Sequence ID No. 8]; and antisense: 5′-[…]-3′ [Sequence ID No. 9]) were designed with the aid of the Primer Express software (PE-Applied Biosystems) to be complementary to the BVDV NADL NS5B region. A total of 10 μL of RNA was analyzed in a 50 μL RT-PCR mixture. Reagents and conditions used in quantitative PCR were purchased from PE-Applied Biosystems. The standard curve that was created using the undiluted inoculum virus ranged from 6000 plaque forming units (PFU) to 0.6 PFU per RT-PCR mixture.
Maldin-Darby bovine kidney (MDBK) cells were grown and maintained in a modified eagle medium (DMEM/F12; GibcoBRL), supplemented with 10% heat inactivated horse serum at 37° C. in a humidified, 5% CO2, incubator.
Bovine viral diarrhea virus (BVDV), strain NADL, causes a cytopathogenic effect (CPE) after infection of these cells.
Cells that were not treated with a test compound were considered a negative control, while ribavirin served as a positive control. Viral RNA was extracted and analyzed by real time RT-PCR.
Controls were Ribavirin and the polyoxymetalate HPA-023 in these experiments.

[2] = Cytotoxicity in MDBK cells; assay type: cell-based
From the text: (§1) Cytotoxicity testing can be carried out according to standard methods. MDBK, PBM, HepG2, Huh7 and Vero cells were used. […]. […] Afterwards the plates containing the dye are read at 490 nm. Each assay was done in triplicate. Such methodologies are well described and available from the manufacturer (Promega).

in vitro = assay type: cell-based
From the text: as §1

human IMPDH = assay: IMPDH inhibition (Ki); assay type: biochemical
[3] = Toxicity of C2-MAD in Balb/c mice (body weight); assay type: in vivo; settings: Balb/c mice, 10, 30 and 60 mg/kg/day, ten day treatment, versus water
From the text: The results of this screening are illustrated in FIG. 4.

[4] = Cytotoxicity in CEM cells; settings: human, CEM cells
MDBK cells = assay: Cytotoxicity in MDBK cells; assay type: cell-based
From the text: as §1

PBMC = assay: in vitro; assay type: cell-based; settings: 7 days
From the text: as §1

CEM = assay: Cytotoxicity in CEM cells; settings: read-out: CEM 7 days CC50; 7 days
[5] = renal transplanted patients, oral; cited from earlier work
IMPDH = settings: literature (WO 95/22538); cited from earlier work
[6] = BVDV real time RT-PCR, after 22 hours, tested at 40 μM
[7] = Bovine viral diarrhea virus isolates and strains, MDBK, 22 h
[8] = Bovine viral diarrhea virus isolates and strains, MDBK, 24 h, read-out: Antiviral (24 hrs) EC90
[9] = 7 days, read-out: PBMC 7 days CC50
[10] = BVDV, 24 hrs, read-out: Antiviral (24 hrs) EC90
[11] = 24 hrs, read-out: MDBK (24 hrs) CC50
[12] = Table 2, 3 days, read-out: MDBK (3 Days) CC50

## N#Cc1cncc([C@@H]2O[C@H](CO)[C@@H](O)[C@H]2O)c1
other
  melting point: 169 to 171 °C

## NC(=O)c1cncc([C@H]2O[C@H](CO)[C@@H](O)[C@H]2O)c1
other
  melting point: 210 to 212 °C

## NC(=O)c1cccc(C2OC(CO)C(O)C2O)c1 (stereo not drawn) [Benzamide Riboside]
[1]; HepG2 cells
  CC50 at 3 days: 8 µM
BVDV; [6]
  max log reduction Viral Load: >2 (40 μM) log
BVDV; [7]
  EC90: 3 µM
BVDV; [8]
  EC90: 3 µM
BVDV
  Selectivity Index (24 hrs/24 hrs) CC50/EC90: 4
[2]; bovine, MDBK cells
  CC50 at 24 h: 13 µM
[2]; bovine, MDBK cells, Table 1
  CC50 at 3 days: 4 µM
[2]; bovine, MDBK cells, Table 2
  CC50 at 3 days: 3 µM
In vitro
  CC50: < 17 µM
Human IMPDH; Table 2, read-out: IMPDH Ki
  pKi: 6.18

## COc1c(C)c2c(c(O)c1CCOP(=O)(O)CP(=O)(O)OC[C@H]1O[C@@H](n3cnc4c(N)ncnc43)C(O)[C@H]1O)C(=O)OC2 (stereo partly drawn) [C2-MAD]
BVDV; [6]
  max log reduction Viral Load: 1.9 (40 μM) log
[2]
  CC50 at 24 h: > 100 µM
[2]; Table 1
  CC50 at 3 days: 50 µM
[2]; Table 2
  CC50 at 3 days: 9 µM
In vitro; [9]
  CC50 at 7 days: 45.9 µM
[3]
  toxic effects: weight gain or loss (FIG. 4): does not contribute to significant weight gain or loss
[4]
  CC50 at 7 days: 17.7 µM

## COc1c(C)c2c(c(O)c1CCO)C(=O)OC2 [C2-MPAlcohol, 6-(2-hydroxyethyl)-7-hydroxy-5-methoxy-4-methylphthalan-1-one]
BVDV; [6]
  max log reduction Viral Load: 1.96 (40 μM) log
BVDV; BVDV real time RT-PCR, after 22 hours, 1-log reduction in viral production, read-out: EC90
  EC90: 40 µM
BVDV; [10]
  EC90: 40 µM
MDBK cells; [11]
  CC50: > 100 µM
MDBK cells; Table 1, 3 days, read-out: MDBK 3 days CC50
  CC50: 7 µM
MDBK cells; [12]
  CC50: 7 µM
PBMC
  CC50: > 100 µM
CEM
  CC50: 91 µM

## COc1c(C)c2c(c(O)c1CC=O)C(=O)OC2 [C2-MPAld]
BVDV; [10]
  EC90: > 100 µM
BVDV
  virus production / viral RNA versus negative control: non-active
MDBK cells
  CC50: > 100 µM

## COc1c(C)c2c(c(O)c1C/C=C(\C)C=O)C(=O)OC2 [C4-MPAld]
BVDV; [10]
  EC90: > 100 µM
BVDV
  virus production / viral RNA versus negative control: non-active
MDBK cells
  CC50: > 100 µM

## COc1c(C)c2c(c(O)c1C/C=C(\C)CCCOP(=O)(O)CP(=O)(O)OC[C@H]1O[C@@H](n3cnc4c(N)ncnc43)[C@H](O)[C@@H]1O)C(=O)OC2 [C6-MAD]
BVDV; [10]
  EC90: > 100 µM
BVDV
  virus production / viral RNA versus negative control: non-active
MDBK cells
  CC50: > 100 µM
Human IMPDH; Table 2, read-out: IMPDH Ki
  pKi: 6.52

## NC(=O)c1cccc([C@@H]2O[C@H](COP(=O)(O)CP(=O)(O)OCC3OC(n4cnc5c(N)ncnc54)C(F)C3O)[C@@H](O)[C@H]2O)c1 (stereo partly drawn) [F-ara-CH2-BAD]
BVDV; [10]
  EC90: > 100 µM
BVDV
  virus production / viral RNA versus negative control: non-active
MDBK cells; [11]
  CC50: > 100 µM
MDBK cells; [12]
  CC50: > 100 µM
Human IMPDH; Table 2, read-out: IMPDH Ki
  pKi: 3.76

## NC(=O)c1ncn([C@H]2O[C@@H](CO)[C@H](O)[C@@H]2O)n1 [L-Ribavirin]
BVDV; [10]
  EC90: > 100 µM
MDBK cells; [11]
  CC50: > 100 µM
MDBK cells; [12]
  CC50: > 100 µM

## COc1c(C)c2c(c(O)c1C/C=C(\C)CCC(=O)OCCN1CCOCC1)C(=O)OC2 [MMF, mycophenolate mofetil]
[5]
  MPA Tmax: 48 min

## COC(=O)CC/C(C)=C/Cc1c(O)c2c(c(C)c1OC)COC2=O [MPA-O-Me]
BVDV; BVDV real time RT-PCR, after 22 hours, tested at 100 μM
  max log reduction Viral Load: 3.32 (100 μM) log
BVDV; [10]
  EC90: < 1 µM
MDBK cells; [11]
  CC50: > 100 µM
MDBK cells; [12]
  CC50: 0.4 µM
Human IMPDH; Table 2, read-out: IMPDH Ki
  pKi: 6.30

## NC(=O)c1ncn([C@@H]2O[C@H](CO)[C@@H](O)[C@H]2O)c1O [Mizoribine]
BVDV; Bovine viral diarrhea virus isolates and strains, MDBK
  EC90: > 100 µM
BVDV; [8]
  EC90: > 100 µM
BVDV
  Selectivity Index (24 hrs/24 hrs) CC50/EC90: 1
  virus production / viral RNA versus negative control: non-active
[2]
  CC50 at 24 h: > 100 µM
[2]; Table 2
  CC50 at 3 days: > 100 µM
Human IMPDH; human IMPDH, read-out: Ki
  pKi: 8.40

## COc1c(C)c2c(c(O)c1C/C=C(\C)CCC(=O)O)C(=O)OC2 [Mycophenolic Acid (MPA), Mycophenolic Acid]
BVDV; [6]
  max log reduction Viral Load: >2 (40 μM) log
BVDV; [7]
  EC90: 1 µM
BVDV; [8]
  EC90: < 1 µM
BVDV
  virus production / viral RNA versus negative control: almost complete absence of viral RNA
[2]; bovine, MDBK cells
  CC50 at 24 h: > 100 µM
[2]; bovine, MDBK cells, Table 1
  CC50 at 3 days: 2 µM
[2]; bovine, MDBK cells, Table 2
  CC50 at 3 days: 2 µM
In vitro
  CC50 at 7 days: 75.4 µM
[4]
  CC50 at 7 days: 0.05 µM
IMPDH
  pIC50: […]

## NC(=O)c1csc([C@@H]2O[C@H](CO)[C@@H](O)[C@H]2O)n1 [Tiazofurin]
[1]
  CC50 at 3 days: > 100 µM
BVDV; [6]
  max log reduction Viral Load: >2 (40 μM) log
BVDV; [7]
  EC90: 30 µM
BVDV; [8]
  EC90: 7 µM
BVDV
  Selectivity Index (24 hrs/24 hrs) CC50/EC90: 14
  virus production / viral RNA versus negative control: almost complete absence of viral RNA
[2]
  CC50 at 24 h: > 100 µM
[2]; Table 1
  CC50 at 3 days: 25 µM
[2]; Table 2
  CC50 at 3 days: 25 µM
In vitro; [9]
  CC50 at 7 days: 79.5 µM
Human IMPDH; Table 2, read-out: IMPDH Ki
  pKi: 6.96
[4]
  CC50 at 7 days: 73.4 µM

## Nc1nc2c(ncn2[C@@H]2O[C@H](CO)[C@@H](O)[C@H]2O)c(=O)[nH]1 [guanosine]
BVDV
  virus production / viral RNA versus negative control: non-active

## NC(=O)c1csc(C2OC(COP(=O)(O)CP(=O)(O)OCC3OC(n4cnc5c(N)ncnc54)C(O)C3O)C(O)C2O)n1 (stereo not drawn) [β-CH2-TAD]
BVDV; [6]
  max log reduction Viral Load: 0.94 (40 μM) log
BVDV; [8]
  EC90: > 100 µM
BVDV
  Selectivity Index (24 hrs/24 hrs) CC50/EC90: 1
[2]; bovine, MDBK cells
  CC50 at 24 h: > 100 µM
[2]; bovine, MDBK cells, Table 1
  CC50 at 3 days: 70 µM
[2]; bovine, MDBK cells, Table 2
  CC50 at 3 days: 70 µM
In vitro
  CC50 at 7 days: > 100 µM
Human IMPDH; Table 2, read-out: IMPDH Ki
  pKi: 6.96
[4]
  CC50 at 7 days: 47.8 µM
